The values below come from patent publication US20090036492A1, “Novel Cercosporamide Derivative” (priority 2005, published 2009).

SMILES strings stand for the structures.

The subject of one experiment is male KK mice. The experiment can be described thus: Blood glucose lowering effect in diabetic KK mice. The note with it: 15 to 20 weeks old, feed containing 0.03% of the compound, three days, blood glucose on the 3rd day vs control group. The experiment is classed as in vivo. From the text:
Six-week-old male KK mice were purchased from CLEA Japan, Inc. and then were fed until 15 to 20 weeks old and affected with diabetes. The mice were individually fed during the adaptation period and the test period, and water and feed (FR2, Funabashi Farm) were freely ingested.
At the start of the experiment, after body weight measurement, blood was collected from the tail vein of the mice into a heparin-coated glass tube and centrifuged, and then plasma was separated. The glucose level in the plasma was measured by Glucoloader GXT (A&T Corp.), and individuals having a blood glucose level of about 350 mg/dl or more were selected. Groups each having 3 to 4 mice were used for the experiment, and the mice were grouped to make the average body weight and the average blood glucose level similar. Each compound was administered to a compound administration group by feeding a mixture with feed containing 0.03% of the compound. A separate group in which the mice were fed only with feed was a control group.
The experiment period (drug administration period) was three days. The grouping day was the 0th day. On the 3rd day, body weight was measured and blood was collected from the tail vein to measure the blood glucose level.
The blood glucose lowering efficacy was determined by the following formula.
Blood glucose lowering efficacy=[(Control group blood glucose level−Compound administration group blood glucose level)/Control group blood glucose level]×100
As to `COc1cc(O)c2c(c1C(=O)NCc1ccc(OCc3ccccc3F)c3ccccc13)OC1=CC(O)=C(C(C)=O)C(=O)[C@]12C` [Example 144, (9aS)-8-Acetyl-N-({4-[(2-fluorobenzyl)oxy]-1-naphthyl}methyl)-1,7-dihydroxy-3-methoxy-9a-methyl-9-oxo-9,9a-dihydrodibenzo[b,d]furan-4-carboxamide], the “Blood glucose lowering efficacy (%)” value was 41%.

Staying with this experiment, now noted: Mus musculus, po, 72 h, 15 to 20 weeks old, feed containing 0.03% of the compound, three days, blood glucose on the 3rd day vs control group, read-out: Blood glucose lowering efficacy (%).
As to `COc1cc(O)c2c(c1C(=O)NCc1c(C)ccc3ccccc13)OC1=CC(O)=C(C(C)=O)C(=O)[C@]12C` [Example 27, (9aS)-8-Acetyl-1,7-dihydroxy-3-methoxy-9a-methyl-N-[(2-methyl-1-naphthyl)methyl]-9-oxo-9,9a-dihydrodibenzo[b,d]furan-4-carboxamide], the inhibition in vivo at 0.03 % in feed is 42%. Take `COc1cc(O)c2c(c1C(=O)NCc1c(C)c(C)cc(C)c1C)OC1=CC(O)=C(C(C)=O)C(=O)[C@]12C` [Example 36, (9aS)-8-Acetyl-1,7-dihydroxy-3-methoxy-9a-methyl-9-oxo-N-(2,3,5,6-tetramethylbenzyl)-9,9a-dihydrodibenzo[b,d]furan-4-carboxamide]: the inhibition in vivo at 0.03 % in feed turned out to be 36%. With `COc1cc(O)c2c(c1C(=O)NCc1c(C)c(C)cc3ccccc13)OC1=CC(O)=C(C(C)=O)C(=O)[C@]12C` [Example 54, (9aS)-8-Acetyl-1,7-dihydroxy-3-methoxy-9a-methyl-N-[(2,3-dimethyl-1-naphthyl)methyl]-9-oxo-9,9a-dihydrodibenzo[b,d]furan-4-carboxamide], the inhibition in vivo at 0.03 % in feed was found to be 34%.

In the case of `CCc1ccc2ccccc2c1CNC(=O)c1c(OC)cc(O)c2c1OC1=CC(O)=C(C(C)=O)C(=O)[C@]12C` [Example 56, (9aS)-8-Acetyl-N-[(2-ethyl-1-naphthyl)methyl]-1,7-dihydroxy-3-methoxy-9a-methyl-9-oxo-9,9a-dihydrodibenzo[b,d]furan-4-carboxamide], the inhibition in vivo at 0.03 % in feed turned out to be 24%.

`COc1cc(O)c2c(c1C(=O)NCc1c(C)c(C)c(C)c3ccccc13)OC1=CC(O)=C(C(C)=O)C(=O)[C@]12C` [Example 69, (9aS)-8-Acetyl-1,7-dihydroxy-3-methoxy-9a-methyl-N-[(2,3,4-trimethyl-1-naphthyl)methyl]-9-oxo-9,9a-dihydrodibenzo[b,d]furan-4-carboxamide]: the inhibition in vivo at 0.03 % in feed is 47%.

Take `CC(=O)C1=C(O)C=C2Oc3c(C(=O)NCc4c(C)ccc5ccccc45)c(OC(F)F)cc(O)c3[C@]2(C)C1=O` [Example 86, (9aS)-8-Acetyl-3-(difluoromethoxy)-1,7-dihydroxy-9a-methyl-N-[(2-methyl-1-naphthyl)methyl]-9-oxo-9,9a-dihydrodibenzo[b,d]furan-4-carboxamide]: the inhibition in vivo at 0.03 % in feed turned out to be 31%. `CO/N=C(\C)C1=C(O)C=C2Oc3c(C(=O)NCc4c(C)ccc5ccccc45)c(OC)cc(O)c3[C@]2(C)C1=O` [Example 87, (9aS)-1,7-Dihydroxy-3-methoxy-8-[(1E)-N-methoxyethaneimidoyl]-9a-methyl-N-[(2-methyl-1-naphthyl)methyl]-9-oxo-9,9a-dihydrodibenzo[b,d]furan-4-carboxamide]: the inhibition in vivo at 0.03 % in feed is 45%.

In the case of `CCCc1c(C)cc(C)c(C)c1CNC(=O)c1c(OC)cc(O)c2c1OC1=CC(O)=C(C(C)=O)C(=O)[C@]12C` [Example 94, (9aS)-8-Acetyl-1,7-dihydroxy-3-methoxy-9a-methyl-9-oxo-N-(2,3,5-trimethyl-6-propylbenzyl)-9,9a-dihydrodibenzo[b,d]furan-4-carboxamide], the inhibition in vivo at 0.03 % in feed was found to be 44%. For the compound `CC#CCOc1cc(C)c(CNC(=O)c2c(OC)cc(O)c3c2OC2=CC(O)=C(C(C)=O)C(=O)[C@]23C)c(C)c1` [Example 97, (9aS)-8-Acetyl-N-[4-(2-butynyloxy)-2,6-dimethylbenzyl]-1,7-dihydroxy-3-methoxy-9a-methyl-9-oxo-9,9a-dihydrodibenzo[b,d]furan-4-carboxamide], the inhibition in vivo at 0.03 % in feed turned out to be 53%.

Turning to `CCC#CCOc1cc(C)c(CNC(=O)c2c(OC)cc(O)c3c2OC2=CC(O)=C(C(C)=O)C(=O)[C@]23C)c(C)c1` [Example 101, (9aS)-8-Acetyl-N-[2,6-dimethyl-4-(2-pentynyloxy)benzyl]-1,7-dihydroxy-3-methoxy-9a-methyl-9-oxo-9,9a-dihydrodibenzo[b,d]furan-4-carboxamide], the inhibition in vivo at 0.03 % in feed was determined as 47%. `CC#CCOc1cc(C)c(CNC(=O)c2c(OC)cc(O)c3c2OC2=CC(O)=C(C(C)=O)C(=O)[C@]23C)c(C)c1C` [Example 102, (9aS)-8-Acetyl-N-[4-(2-butynyloxy)-2,3,6-trimethylbenzyl]-1,7-dihydroxy-3-methoxy-9a-methyl-9-oxo-9,9a-dihydrodibenzo[b,d]furan-4-carboxamide]: the inhibition in vivo at 0.03 % in feed was determined as 63%.

Consider `CCC#CCOc1cc(C)c(CNC(=O)c2c(OC)cc(O)c3c2OC2=CC(O)=C(C(C)=O)C(=O)[C@]23C)c(C)c1C` [Example 103, (9aS)-8-Acetyl-1,7-dihydroxy-3-methoxy-9a-methyl-9-oxo-N-[2,3,6-trimethyl-4-(2-pentynyloxy)benzyl]-9,9a-dihydrodibenzo[b,d]furan-4-carboxamide], for which the inhibition in vivo at 0.03 % in feed was 62%.

Consider `COc1cc(O)c2c(c1C(=O)NCc1ccc(OCc3ccccc3)c3ccccc13)OC1=CC(O)=C(C(C)=O)C(=O)[C@]12C` [Example 104, (9aS)-8-Acetyl-N-{[4-(benzyloxy)-1-naphthyl]methyl}-1,7-dihydroxy-3-methoxy-9a-methyl-9-oxo-9,9a-dihydrodibenzo[b,d]furan-4-carboxamide], for which the inhibition in vivo at 0.03 % in feed turned out to be 53%.

`COc1cc(O)c2c(c1C(=O)NCc1ccc(OCc3ccc(F)cc3)c3ccccc13)OC1=CC(O)=C(C(C)=O)C(=O)[C@]12C` [Example 106, (9aS)-8-Acetyl-N-({4-[(4-fluorobenzyl)oxy]-1-naphthyl}methyl)-1,7-dihydroxy-3-methoxy-9a-methyl-9-oxo-9,9a-dihydrodibenzo[b,d]furan-4-carboxamide]: the inhibition in vivo at 0.03 % in feed was 51%. Regarding `COc1cc(O)c2c(c1C(=O)NCc1c(C)cc(NS(=O)(=O)c3ccc(Cl)cc3Cl)cc1C)OC1=CC(O)=C(C(C)=O)C(=O)[C@]12C` [Example 111, (9aS)-8-Acetyl-N-(4-{[(2,4-dichlorophenyl)sulfonyl]amino}-2,6-dimethylbenzyl)-1,7-dihydroxy-3-methoxy-9a-methyl-9-oxo-9,9a-dihydrodibenzo[b,d]furan-4-carboxamide], the inhibition in vivo at 0.03 % in feed amounted to 31%. Still for that read-out and setting: then `CCc1c(C)cc2ccccc2c1CNC(=O)c1c(OC)cc(O)c2c1OC1=CC(O)=C(C(C)=O)C(=O)[C@]12C` [Example 116, (9aS)-8-Acetyl-N-[(2-ethyl-3-methyl-1-naphthyl)methyl]-1,7-dihydroxy-3-methoxy-9a-methyl-9-oxo-9,9a-dihydrodibenzo[b,d]furan-4-carboxamide], with 32%; and `COc1cc(O)c2c(c1C(=O)NCc1c(C)cc(NS(=O)(=O)c3cc(C)c(Cl)cc3Cl)cc1C)OC1=CC(O)=C(C(C)=O)C(=O)[C@]12C` [Example 140, (9aS)-8-Acetyl-N-(4-{[(2,4-dichloro-5-methylphenyl)sulfonyl]amino}-2,6-dimethylbenzyl)-1,7-dihydroxy-3-methoxy-9a-methyl-9-oxo-9,9a-dihydrodibenzo[b,d]furan-4-carboxamide], with 18%. On to `COc1cc(O)c2c(c1C(=O)NCc1ccc(OCc3ccc(F)cc3F)c3ccccc13)OC1=CC(O)=C(C(C)=O)C(=O)[C@]12C` [Example 146, (9aS)-8-Acetyl-N-({4-[(2,4-difluorobenzyl)oxy]-1-naphthyl}methyl)-1,7-dihydroxy-3-methoxy-9a-methyl-9-oxo-9,9a-dihydrodibenzo[b,d]furan-4-carboxamide], for which the inhibition in vivo at 0.03 % in feed worked out at 49%. Turning to `COc1cc(O)c2c(c1C(=O)NCc1ccc(OCc3ccccc3Cl)c3ccccc13)OC1=CC(O)=C(C(C)=O)C(=O)[C@]12C` [Example 147, (9aS)-8-Acetyl-N-({4-[(2-chlorobenzyl)oxy]-1-naphthyl}methyl)-1,7-dihydroxy-3-methoxy-9a-methyl-9-oxo-9,9a-dihydrodibenzo[b,d]furan-4-carboxamide], the inhibition in vivo at 0.03 % in feed came to 62%. As for `C=CCO/N=C(\C)C1=C(O)C=C2Oc3c(C(=O)NCc4c(C)cc(NS(=O)(=O)c5ccc(Cl)cc5Cl)cc4C)c(OC)cc(O)c3[C@]2(C)C1=O` [Example 162, (9aS)-8-[(1E)-N-(Allyloxy)ethaneimidoyl]-N-(4-{[(2,4-dichlorophenyl)sulfonyl]amino}-2,6-dimethylbenzyl)-1,7-dihydroxy-3-methoxy-9a-methyl-9-oxo-9,9a-dihydrodibenzo[b,d]furan-4-carboxamide], the inhibition in vivo at 0.03 % in feed was 43%. `COc1cc(O)c2c(c1C(=O)NCc1ccc(Oc3ccc(Cl)cc3Cl)c3ccccc13)OC1=CC(O)=C(C(C)=O)C(=O)[C@]12C` [Example 164, (9aS)-8-Acetyl-N-{[4-(2,4-dichlorophenoxy)-1-naphthyl]methyl}-1,7-dihydroxy-3-methoxy-9a-methyl-9-oxo-9,9a-dihydrodibenzo[b,d]furan-4-carboxamide]: the inhibition in vivo at 0.03 % in feed is 43%.
